Each structure is given as a SMILES string.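 Test compounds were applied to cells in 96-well plates for 48 hours at 5 doses. Abbreviation: GI50, concentration required for 50% inhibition of growth.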 Activity calls are given as the source filed them. No stated cut-off is given here; in the data, active = GI50 up to about 1.1 µM and inactive = higher.

Test systems include OVCAR-8; NCI-H522; OVCAR-4; ACHN; SF-295; SK-MEL-2; NCI-H23; SF-539; 786-0; CCRF-CEM; T47D; U-251; SNB-19; NCI/ADR-RES; PC-3; A549; MCF7; IGROV-1; HT-29; DU-145.
What all share (assay): NCI-60 cell line screen, 48 h

Take `CCOC(=O)c1c[nH]c2c(Sc3ccccc3)nccc2c1=O`: the GI50 was > 100 µM (inactive) in the test on OVCAR-8; 19.7 µM (inactive) in the test with NCI-H522; > 100 µM (inactive) in the test with OVCAR-4; > 100 µM (inactive) with ACHN; > 100 µM (inactive) with SF-295; > 100 µM (inactive) in the test with SK-MEL-2. Also, the GI50 in the test on NCI-H23 is 32.4 µM (inactive); with SF-539, 77.8 µM (inactive); in the test on 786-0 it was > 100 µM (inactive); in the test with CCRF-CEM, 22.3 µM (inactive); in the test on T47D, 18.3 µM (inactive); with U-251, 44.4 µM (inactive). In addition, the GI50 in the test with SNB-19 is > 100 µM (inactive); in the test on NCI/ADR-RES, > 100 µM (inactive); in the test on PC-3 it was > 100 µM (inactive); with A549, 87.5 µM (inactive); with MCF7 it was 71.4 µM (inactive); in the test on IGROV-1 it was 21.7 µM (inactive). Also, the figures for the GI50 with HT-29 and in the test on DU-145 were 97.5 µM (inactive) and 90.8 µM (inactive), respectively.
In the case of `COC1CC2C=CC3C4OC2(/C(C)=C/C(C)C(C(C)O)OC1=O)C3C(O)C(C)C4OC(=O)c1ccc[nH]1` (stereo not given), the GI50 was 48.9 µM (inactive) in the test on OVCAR-8; > 100 µM (inactive) with NCI-H522; 74 µM (inactive) with OVCAR-4; > 100 µM (inactive) with ACHN; 30.9 µM (inactive) with SF-295; > 100 µM (inactive) with SK-MEL-2. The GI50 with NCI-H23 was > 100 µM (inactive); in the test on SF-539, 59.6 µM (inactive); in the test on 786-0, 94.8 µM (inactive); in the test on CCRF-CEM it was 25.9 µM (inactive); in the test on T47D, > 100 µM (inactive); with U-251, 96.2 µM (inactive). For the same compound, the GI50 in the test with SNB-19 was > 100 µM (inactive); with NCI/ADR-RES, 66.2 µM (inactive); in the test with PC-3 it was 46.6 µM (inactive); with A549 it was > 100 µM (inactive); in the test with MCF7 it was 94.4 µM (inactive); with IGROV-1, > 100 µM (inactive). Besides, the GI50 in the test with HT-29 was 66.8 µM (inactive); in the test with DU-145 it was 82 µM (inactive).
Turning to `CC1=C2C(=CO[C@H](C)[C@H]2C)C(O)=C(C(=O)O)C1=O` [CITRININ], the GI50 with OVCAR-8 is 13.2 µM (inactive); in the test on NCI-H522 it was 12.4 µM (inactive); in the test on OVCAR-4, 32.9 µM (inactive); in the test with ACHN, 21 µM (inactive); in the test on SF-295 it was 35.8 µM (inactive); in the test with SK-MEL-2 it was 16.3 µM (inactive). Also, the GI50 with NCI-H23 was 20.5 µM (inactive); with SF-539, 12.3 µM (inactive); in the test on 786-0, 24.5 µM (inactive); with CCRF-CEM it was 14.8 µM (inactive); with T47D, 29.2 µM (inactive); in the test on U-251, 14.6 µM (inactive). Besides, the GI50 is 21.9 µM (inactive) in the test on SNB-19; 43.8 µM (inactive) with NCI/ADR-RES; 32 µM (inactive) in the test on PC-3; 70.5 µM (inactive) with A549; 15.7 µM (inactive) in the test on MCF7; 18.6 µM (inactive) in the test with IGROV-1. Besides, the GI50 in the test on HT-29 was 33.9 µM (inactive); in the test on DU-145 it was 24.2 µM (inactive).
With `CCN(CC)C(=S)SS(=O)(=O)c1ccccc1C(=O)O`, the GI50 was > 100 µM (inactive) in the test with OVCAR-8; 2.67 µM (inactive) in the test with NCI-H522; > 100 µM (inactive) in the test on OVCAR-4; > 70.8 µM (inactive) in the test on ACHN; > 88.5 µM (inactive) in the test with SF-295; > 100 µM (inactive) in the test with SK-MEL-2. For the same compound, the GI50 is > 100 µM (inactive) in the test with NCI-H23; > 100 µM (inactive) in the test on SF-539; > 100 µM (inactive) in the test with 786-0; 82 µM (inactive) in the test with CCRF-CEM; > 36 µM (inactive) with T47D; 99.8 µM (inactive) in the test with U-251. In addition, the GI50 with SNB-19 is > 94.2 µM (inactive); in the test on NCI/ADR-RES, > 100 µM (inactive); in the test with PC-3, > 100 µM (inactive); with A549 it was 10.8 µM (inactive); in the test with MCF7 it was 1.03 µM (active); with IGROV-1 it was > 100 µM (inactive). Moreover, the GI50 in the test with HT-29 and in the test with DU-145 was > 100 µM (inactive) each time.
With `Cc1cc(N=C2C=C(Br)C(=O)C(Br)=C2)cc(CN(CC(=O)O)CC(=O)O)c1O`, the GI50 with OVCAR-8, in the test on NCI-H522, in the test on OVCAR-4, in the test on ACHN, in the test on SF-295 and with SK-MEL-2 was > 100 µM (inactive) in each case. In addition, the GI50 in the test with NCI-H23, in the test with SF-539, in the test on 786-0, in the test on CCRF-CEM, in the test on T47D and with U-251 was > 100 µM (inactive) throughout. Also, the GI50 in the test with SNB-19, with NCI/ADR-RES, with PC-3, in the test on A549, in the test with MCF7 and in the test on IGROV-1 was > 100 µM (inactive) each time. For the same compound, the GI50 with HT-29 and with DU-145 was > 100 µM (inactive) in each case.
On to `CC(=O)Oc1c2c(c(CC=C(C)C)c3c1C(=O)C1=C[C@@H]4CC5C(C)(C)OC(C/C=C(/C)C(=O)O)(C4=O)[C@@]15O3)OC(C)(CCC=C(C)C)C=C2` (stereo not given in full), for which the GI50 in the test with OVCAR-8 was 0.184 µM (active); with NCI-H522, 0.0796 µM (active); in the test with OVCAR-4, 0.177 µM (active); in the test with ACHN it was 0.102 µM (active); with SF-295, 0.454 µM (active); in the test with SK-MEL-2, 0.305 µM (active). Besides, the GI50 is 0.197 µM (active) in the test on NCI-H23; 0.0986 µM (active) in the test on SF-539; 0.0989 µM (active) in the test with 786-0; 0.101 µM (active) with CCRF-CEM; 0.12 µM (active) in the test on T47D; 0.0918 µM (active) in the test with U-251. Besides, the GI50 with SNB-19 was 0.269 µM (active); with NCI/ADR-RES, 0.525 µM (active); with PC-3, 0.244 µM (active); in the test on A549, 0.188 µM (active); in the test on MCF7, 0.173 µM (active); in the test with IGROV-1 it was 0.0998 µM (active). For the same compound, the GI50 in the test on HT-29 is 0.19 µM (active); in the test on DU-145, 0.287 µM (active).
As to `C=C(C)[C@@H]1CCc2c(c(C)cc(O)c(=O)c2O)C1`, the GI50 was 0.706 µM (active) in the test on OVCAR-8; 0.247 µM (active) in the test on NCI-H522; 0.146 µM (active) in the test on OVCAR-4; 1.18 µM (inactive) in the test on ACHN; 2 µM (inactive) in the test with SF-295; 4.79 µM (inactive) in the test on SK-MEL-2. In addition, the GI50 with NCI-H23 was 2.58 µM (inactive); in the test with SF-539, 0.6 µM (active); in the test on 786-0, 1.41 µM (inactive); with CCRF-CEM, 0.412 µM (active); in the test with T47D, 3.8 µM (inactive); in the test on U-251, 1.3 µM (inactive). Besides, the GI50 in the test on SNB-19 was 1.13 µM (inactive); in the test on NCI/ADR-RES, 0.583 µM (active); in the test on PC-3 it was 3.85 µM (inactive); in the test with A549, 1.17 µM (inactive); with MCF7, 1.48 µM (inactive); in the test with IGROV-1, 0.179 µM (active). In addition, the GI50 was 3.01 µM (inactive) with HT-29 and 2.18 µM (inactive) in the test on DU-145.
Turning to `C(=N\c1nc2cc3sc(/N=C/c4ccccc4)nc3cc2s1)/c1ccccc1`, the GI50 was > 66.2 µM (inactive) with OVCAR-8; 17.1 µM (inactive) in the test on NCI-H522; > 89.5 µM (inactive) with OVCAR-4; 55.8 µM (inactive) with ACHN; > 100 µM (inactive) in the test on SF-295; > 100 µM (inactive) with SK-MEL-2. Besides, the GI50 was 39 µM (inactive) with NCI-H23; 32.5 µM (inactive) with SF-539; > 100 µM (inactive) with 786-0; 2.49 µM (inactive) with CCRF-CEM; > 67.9 µM (inactive) with T47D; > 94.6 µM (inactive) with U-251. Besides, the GI50 is > 100 µM (inactive) with SNB-19; > 80.4 µM (inactive) in the test on NCI/ADR-RES; 98.4 µM (inactive) in the test with PC-3; 9.66 µM (inactive) in the test on A549; 20.8 µM (inactive) in the test with MCF7; > 63.2 µM (inactive) in the test with IGROV-1. The GI50 in the test with HT-29 was 37.1 µM (inactive); in the test with DU-145, > 66.5 µM (inactive).
With `COc1cc2c(/C=C3/C(=O)Nc4ccc(Cl)cc43)c(Cl)[nH]c2cc1C`, the GI50 was 1.73 µM (inactive) with OVCAR-8; 2.16 µM (inactive) in the test with NCI-H522; 0.818 µM (active) in the test on OVCAR-4; 0.587 µM (active) in the test on ACHN; 0.356 µM (active) with SF-295; 0.966 µM (active) with SK-MEL-2. The GI50 is 0.916 µM (active) in the test on NCI-H23; 0.232 µM (active) in the test on SF-539; 0.731 µM (active) in the test on 786-0; 0.332 µM (active) in the test with CCRF-CEM; 4.39 µM (inactive) in the test with T47D; 0.394 µM (active) with U-251. Besides, the GI50 in the test with SNB-19 is 0.408 µM (active); with NCI/ADR-RES it was 0.662 µM (active); with PC-3, 0.505 µM (active); in the test with A549, 0.711 µM (active); with MCF7, 0.489 µM (active); with IGROV-1 it was 0.368 µM (active). For the same compound, the values for the GI50 in the test on HT-29 and with DU-145 were 0.544 µM (active) and 1.36 µM (inactive), respectively.
With `C/C(CC(O)(C(F)(F)F)C(F)(F)F)=N\N`, the GI50 with OVCAR-8, in the test with NCI-H522, in the test with OVCAR-4, with ACHN, in the test with SF-295 and in the test on SK-MEL-2 was > 10 µM (inactive) throughout. Besides, the GI50 with NCI-H23, with SF-539, with 786-0, in the test on CCRF-CEM, in the test with T47D and in the test on U-251 was > 10 µM (inactive) each time. Also, the GI50 in the test on SNB-19, in the test on NCI/ADR-RES, in the test on PC-3, in the test on A549, in the test with MCF7 and in the test with IGROV-1 was > 10 µM (inactive) throughout. The GI50 in the test with HT-29 and with DU-145 was > 10 µM (inactive) throughout.

The values are drawn from ChEMBL document CHEMBL1201862, “PubChem BioAssay data set” (2004).
